# Assay results from patent US20070111989A1, “Novel diazabicyclononene derivatives and use” (priority 2004, published 2007).
# Target: T1, human recombinant renin (Homo sapiens, UniProt P00797)
# T1 sequence (P00797 67-406): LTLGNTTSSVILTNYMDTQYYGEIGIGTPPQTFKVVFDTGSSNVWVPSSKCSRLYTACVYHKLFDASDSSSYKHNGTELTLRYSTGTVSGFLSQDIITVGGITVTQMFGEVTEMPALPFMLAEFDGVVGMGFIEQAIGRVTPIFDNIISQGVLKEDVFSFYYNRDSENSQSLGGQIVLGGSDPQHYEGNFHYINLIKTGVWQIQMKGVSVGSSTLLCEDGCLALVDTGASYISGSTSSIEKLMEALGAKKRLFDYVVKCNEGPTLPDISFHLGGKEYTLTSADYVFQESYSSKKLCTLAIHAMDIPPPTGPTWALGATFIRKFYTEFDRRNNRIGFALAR
# Experiment: Inhibition of human recombinant renin, enzymatic in vitro assay with Ang I EIA detection
# Assay type: biochemical
# Conditions: human recombinant renin 0.16 ng/mL, synthetic human angiotensin(1-14) 0.5 μM, 37° C. for 3 h; read-out: IC50 (concentration that inhibited the enzyme activity by 50%)
# Experimental: Inhibition of Human Recombinant Renin by the Compounds of the Invention The enzymatic in vitro assay was performed in 384-well polypropylene plates (Nunc). The assay buffer consisted of 10 mM PBS (Gibco BRL) including 1 mM EDTA and 0.1% BSA. The incubates were composed of 50 μL per well of an enzyme mix and 2.5 μL of renin inhibitors in DMSO. The enzyme mix was premixed at 4° C. and consists of the following components: • human recombinant renin (0.16 ng/mL) • synthetic human angiotensin(1-14) (0.5 μM) • hydroxyquinoline sulfate (1 mM) The mixtures were then incubated at 37° C. for 3 h. To determine the enzymatic activity and its inhibition, the accumulated Ang I was detected by an enzyme immunoassay (EIA) in 384-well plates (Nunc). 5 μL of the incubates or standards were transferred to immuno plates which were previously coated with a covalent complex of Ang I and bovine serum albumin (Ang 1-BSA). 75 μL of Ang I-antibodies in essaybuffer above including 0.01% Tween 20 were added and a primary incubation made at 4° C. overnight. The plates were washed 3 times with PBS including 0.01% Tween 20, and then incubated for 2 h at rt with an antirabbit-peroxidase coupled antibody (WA 934, Amersham).
row,IC50,Structure (SMILES)
1,1 nM,"COCCOc1nccc(CN(C(=O)C2=C(c3ccc(CCCOc4c(F)ccc(F)c4Cl)cc3)C[C@@H]3CNC[C@H]2N3)C2CC2)c1C (racemic) [Example 1, (rac.)-(1R*,5S*)-7-{4-[3-(2-Chloro-3,6-difluorophenoxy)propyl]phenyl}-3,9-diazabicyclo[3.3.1]non-6-ene-6-carboxylic acid cyclopropyl-[2-(2-methoxy-ethoxy)-3-methylpyridin-4-ylmethyl]amide]"
2,1.05 nM,"COCCOc1cccc(CN(C(=O)C2=C(c3ccc(CCCOc4c(F)ccc(F)c4Cl)cc3)CC3CNCC2N3)C2CC2)c1C (racemic) [Example 2, (rac.)-(1R*,5S*)-7-{(4-[3-(2-Chloro-3,6-difluorophenoxy)propyl]phenyl}-3,9-diazabicyclo[3.3.1]non-6-ene-6-carboxylic acid cyclopropyl-[3-(2-methoxy-ethoxy)-2-methylbenzyl]amide]"
